Publication PMC3933693, “Novel Inhibitors of Mitochondrial sn-Glycerol 3-phosphate Dehydrogenase” (PLoS ONE, 2014)

What was measured:
[1] = target: T1, mGPDH (Rattus norvegicus, UniProt P35571); assay: Superoxide/H2O2 production by mGPDH in isolated skeletal muscle mitochondria (Amplex UltraRed); assay type: biochemical; conditions: for mGPDH (% change from DMSO): primary screen, ∼2.5 µM, average of duplicates, 16.7 mM glycerol phosphate, no added calcium
T1 construct: Activity of mGPDH in frozen-thawed skeletal muscle mitochondria was measured; from tissue; host or cells: skeletal muscle mitochondria
T1 sequence (P35571 43-727): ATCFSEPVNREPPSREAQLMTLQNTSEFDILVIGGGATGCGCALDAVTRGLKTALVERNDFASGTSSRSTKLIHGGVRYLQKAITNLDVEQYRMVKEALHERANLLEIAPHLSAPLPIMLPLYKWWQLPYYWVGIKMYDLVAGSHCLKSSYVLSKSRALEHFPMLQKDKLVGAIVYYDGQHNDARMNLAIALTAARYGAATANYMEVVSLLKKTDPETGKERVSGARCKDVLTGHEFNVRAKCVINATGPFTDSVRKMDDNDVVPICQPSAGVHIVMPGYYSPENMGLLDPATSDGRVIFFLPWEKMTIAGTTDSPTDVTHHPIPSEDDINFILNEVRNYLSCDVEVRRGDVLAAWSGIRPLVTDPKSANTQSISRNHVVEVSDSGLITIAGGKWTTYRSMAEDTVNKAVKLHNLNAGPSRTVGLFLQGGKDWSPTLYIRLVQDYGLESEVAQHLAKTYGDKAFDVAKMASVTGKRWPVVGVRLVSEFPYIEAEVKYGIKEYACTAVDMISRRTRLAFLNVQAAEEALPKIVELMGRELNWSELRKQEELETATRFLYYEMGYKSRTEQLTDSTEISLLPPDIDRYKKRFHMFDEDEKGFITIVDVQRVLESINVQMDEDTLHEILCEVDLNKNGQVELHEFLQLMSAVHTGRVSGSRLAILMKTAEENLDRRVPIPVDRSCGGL

[2] = tested on: flavin mononucleotide site of complex I (site IF) plus matrix NAD-linked dehydrogenases (site IF/DH); assay: Site-specific H2O2 production from site IF/DH in skeletal muscle mitochondria; assay type: biochemical, rat; conditions: primary screen, ∼2.5 µM, average of duplicates
Description: (§1) Superoxide was measured as H2O2 after dismutation by endogenous or exogenous superoxide dismutase. Rates of total superoxide/H2O2 production were measured fluorimetrically using Amplex UltraRed in the presence of exogenous superoxide dismutase and horseradish peroxidase in a Varian Cary Eclipse fluorimeter as previously described. Rates of production from specific sites were determined as previously described using the following eight conditions: flavin mononucleotide site of complex I (site IF) plus matrix NAD-linked dehydrogenases (collectively "site IF/DH") with 5 mM glutamate, 5 mM malate, and 4 µM rotenone; ubiquinone-binding site of complex I (site IQ) with either 0.5 or 5 mM succinate; flavin site of complex II (site IIF) with either 15 µM palmitoylcarnitine, 2.5 µM antimycin A, and 2 µM myxothiazol or 0.5 mM succinate, 4 µM rotenone, 2.5 µM antimycin A, and 2 µM myxothiazol, [31]; mGPDH with 1.7 mM glycerol phosphate, 4 µM rotenone, 2.5 µM antimycin A, 2 µM myxothiazol, 1 mM malonate, and 250 nM free calcium; outer ubiquinone-binding site of complex III (site IIIQo) with either 0.5 or 5 mM succinate, 4 µM rotenone and 2.5 µM antimycin A [32]. Candidate small-molecule inhibitors were added prior to the start of measurements and H2O2 calibration curves were performed in the presence of tested compounds.
(§2) 3,200 compounds were tested initially at 2.5 µM (0.025% DMSO final) in duplicate on different plates against a panel of five distinct assays of site-specific superoxide/H2O2 production as described in the previous section with minor changes. […] Endpoint fluorescence was measured on a Perkin Elmer Victor V3 fluorescent plate reader. The fluorescence intensity of each well was normalized as % change from the average of eight DMSO controls on the same plate. Duplicate wells of each of four modulators of mitochondrial metabolism known to inhibit specific sites of superoxide/H2O2 production were included on each plate as positive controls and the resulting fluorescence levels set as −100% change from DMSO controls. Known inhibitors included 20 mM aspartate (for site IF/DH), 1 µM FCCP (for site IQ), 10 mM malonate (for site IIF), and 2 µM myxothiazol (for site IIIQo). The background fluorescence of the FCCP wells in the site IQ assay was used to normalize mGPDH plates run in parallel. To minimize position-dependent effects across each assay plate, Tukey’s two-way median polish was applied to fluorescence values after initial normalization, [36]. Tukey’s polish is an iterative subtraction of the median row and column values from each well’s given row or column. The procedure is repeated until sequential medians for each row and column are zero and positional gradients in fluorescence are eliminated.

[3] = tested on: ubiquinone-binding site of complex I (site IQ); assay: Site-specific H2O2 production from site IQ in skeletal muscle mitochondria; assay type: biochemical, rat; conditions: primary screen, ∼2.5 µM, average of duplicates; 5 mM succinate;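 also: H2O2 from superoxide detected by Amplex UltraRed fluorescence with added superoxide dismutase and horseradish peroxidase, endpoint read 30–40 min after substrate addition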
[4] = target: T2, flavin site of complex II (site IIF) (Rattus norvegicus, UniProt Q920L2); assay: Site-specific H2O2 production from site IIF in skeletal muscle mitochondria; assay type: biochemical; conditions: primary screen, ∼2.5 µM, average of duplicates; palmitoylcarnitine
T2 construct: from tissue; host or cells: skeletal muscle mitochondria
T2 sequence (Q920L2 35-656): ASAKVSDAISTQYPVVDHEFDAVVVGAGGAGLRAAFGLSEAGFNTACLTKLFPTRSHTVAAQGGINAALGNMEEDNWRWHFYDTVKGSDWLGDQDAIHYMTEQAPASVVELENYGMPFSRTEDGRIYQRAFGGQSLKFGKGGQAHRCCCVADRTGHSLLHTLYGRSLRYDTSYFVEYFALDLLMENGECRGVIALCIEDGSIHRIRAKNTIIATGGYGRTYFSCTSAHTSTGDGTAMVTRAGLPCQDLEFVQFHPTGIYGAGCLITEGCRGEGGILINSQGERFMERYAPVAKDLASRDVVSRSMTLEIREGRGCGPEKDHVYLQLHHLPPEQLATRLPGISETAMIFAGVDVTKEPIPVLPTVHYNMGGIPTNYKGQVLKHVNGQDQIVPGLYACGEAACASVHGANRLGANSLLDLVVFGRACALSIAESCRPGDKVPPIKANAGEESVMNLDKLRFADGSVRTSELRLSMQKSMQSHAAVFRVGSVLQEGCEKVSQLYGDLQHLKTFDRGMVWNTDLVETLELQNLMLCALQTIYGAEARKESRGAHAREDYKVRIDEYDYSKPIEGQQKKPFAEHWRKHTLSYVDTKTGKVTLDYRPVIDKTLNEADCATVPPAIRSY
T2 sequence (P21913 31-282 partner): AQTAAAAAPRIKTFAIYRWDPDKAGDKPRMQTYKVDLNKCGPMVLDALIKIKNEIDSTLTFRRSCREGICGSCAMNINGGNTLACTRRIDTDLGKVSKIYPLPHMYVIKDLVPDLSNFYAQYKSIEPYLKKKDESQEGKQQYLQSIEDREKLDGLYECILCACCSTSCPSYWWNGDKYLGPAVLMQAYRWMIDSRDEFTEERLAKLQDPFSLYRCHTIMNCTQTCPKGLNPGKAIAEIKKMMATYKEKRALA
T2 sequence (Q641Z9 30-169 partner limits assumed): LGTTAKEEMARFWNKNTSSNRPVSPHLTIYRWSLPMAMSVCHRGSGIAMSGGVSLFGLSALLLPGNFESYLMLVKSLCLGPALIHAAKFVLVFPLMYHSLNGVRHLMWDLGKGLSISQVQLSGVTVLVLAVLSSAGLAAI
T2 sequence (Q6PCT8 57-159 partner): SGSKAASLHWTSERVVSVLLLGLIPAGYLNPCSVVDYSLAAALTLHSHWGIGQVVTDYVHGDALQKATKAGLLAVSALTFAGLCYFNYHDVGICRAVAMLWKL
Description: as §1, §2

[5] = target: T3, outer ubiquinone-binding site of complex III (site IIIQo) (Rattus norvegicus, UniProt P00159+P20788); assay: Site-specific H2O2 production from site IIIQo in skeletal muscle mitochondria; assay type: biochemical; conditions: primary screen, ∼2.5 µM, average of duplicates; 5 mM succinate
T3 construct: from tissue; host or cells: skeletal muscle mitochondria
Description: as §1, §2

[6] = tested on: skeletal muscle mitochondria; assay: Mitochondrial membrane potential (ΔΨm, TMRM) powered by glutamate plus malate; assay type: biochemical, rat; conditions: primary screen, ∼2.5 µM, average of duplicates; glutamate and malate

Row | SMILES | effect on the rate of H2O2 production from mGPDH ([1]; compared with glyceraldehyde 3-phosphate, Fig. 2A) | mGPDH (% change from DMSO) [1] [%] | IIF (% change from DMSO) [4] [%] | IIIQo (% change from DMSO) [5] [%] | IF/DH (% change from DMSO) [2] [%] | IQ (% change from DMSO) [3] [%] | ΔΨm (% change from DMSO) [6] [%]
1 | O=C(CO)COP(=O)(O)O [DHAP, dihydroxyacetone phosphate, reference compound] | less effective |  |  |  |  |  | 
2 | Nc1cc(S(=O)(=O)c2ccc(O)c(N)c2)ccc1O [compound 5105145] |  | -37.3 | -62.7 | -48.5 | -62.0 | -49.7 | -1.2
3 | NC(=O)Cc1c[nH]c2cccc(O)c12 [compound 5106694] |  | -32.1 | -58.5 | -48.1 | -39.7 | -49.2 | 0.127
4 | O=C1c2ccccc2C(=O)N1CCc1c[nH]c2ccc(O)cc12 [compound 5106791] |  | -16.2 | -42.5 | -35.4 | -33.6 | -44.7 | 0.466
5 | COc1ccc(NCc2ccccc2)cc1 [compound 5107549] |  | -28.0 | -44.6 | -6.9 | -41.3 | -27.5 | 0.3
6 | O=[N+]([O-])c1ccc2[nH]c(-c3ccccc3)cc2c1 [compound 5107950] |  | -19.8 | -18.1 | 46.2 | -58.4 | -70.5 | -14.4
7 | CCCCc1c(C(=O)O)cc(C)cc1C(=O)O [compound 5119061] |  | -10.0 | -5.7 | -6.2 | -13.1 | -6.2 | 0.737
8 | Nc1ccc(-c2nc3ccc(N)cc3[nH]2)cc1 [compound 5137121] |  | -72.6 | -106.6 | -73.9 | -89.7 | -61.6 | 1.1
9 | CC(C)CSC(CC(=O)O)C(=O)O (stereo not shown) [compound 5152843] |  | -10.7 | -7.8 | -15.7 | -19.0 | -6.2 | -0.119
10 | O=S(=O)(Nc1ccc(O)c(Br)c1)c1ccc(Cl)cc1 [compound 5158529] |  | -23.5 | -47.6 | -42.6 | -54.3 | -50.5 | -0.4
11 | O=C1N=C(c2ccccc2)C(c2ccccc2)N1 (stereo not shown) [compound 5162292] |  | -13.1 | -24.8 | -23.8 | -7.5 | -4.2 | -2.7
12 | COc1ccc(NCCNc2ccc(OC)cc2)cc1 [compound 5174308] |  | -37.5 | -50.8 | -30.1 | -73.0 | -49.0 | 0.352
13 | Nc1ccccc1S(=O)(=O)Nc1cccc2cccnc12 [compound 5175136] |  | -16.1 | -14.5 | 9.1 | -42.5 | -18.9 | 0.113
14 | Nc1cc(C(=O)O)c(N)cc1C(=O)O [compound 5180162] |  | -10.8 | -10.7 | -3.2 | -5.6 | -6.3 | -0.24
15 | O=C(Cc1ccccc1)Nc1cc(C(=O)O)c(NC(=O)Cc2ccccc2)cc1C(=O)O [compound 5181020] |  | -31.6 | -39.7 | -32.7 | -40.9 | -35.6 | 0.05

Second part, led by results:

Row | effect on the rate of H2O2 production from mGPDH ([1]; compared with glyceraldehyde 3-phosphate, Fig. 2A) | mGPDH (% change from DMSO) [1] [%] | IIF (% change from DMSO) [4] [%] | IIIQo (% change from DMSO) [5] [%] | SMILES | IF/DH (% change from DMSO) [2] [%] | IQ (% change from DMSO) [3] [%] | ΔΨm (% change from DMSO) [6] [%]
16 |  | -10.7 | -1.2 | -9.7 | CC(=O)N(C)c1ccc(NC(=O)c2ccc(-c3ccccc3)cc2)cc1 [compound 5191683] | -3.4 | -6.3 | 0.5
17 |  | -68.8 | -110.1 | -41.2 | CN(C)c1nc2ccc(O)cc2s1 [compound 5195231] | -166.4 | -66.7 | 0.4
18 |  | -17.8 | -17.8 | 4.3 | CC(C)c1nnc(NC(=O)c2cccc([N+](=O)[O-])c2)s1 [compound 5210298] | -36.0 | -67.3 | -4.4
19 |  | -11.4 | -0.156 | 11.8 | Cc1ccc(NC(=O)c2ccc(C(C)(C)C)cc2)cc1 [compound 5210384] | 6.3 | 1.4 | -1.1
20 |  | -18.0 |  | -19.0 | COc1ccc(O)c(CN2CCC(N3CCCCC3)CC2)c1 [compound 5410291] | -15.5 | -18.2 | -0.0836
21 |  | -11.3 |  | -15.0 | COc1cc(CN2CCOCC2)ccc1O [compound 5423875] | -12.7 | -20.0 | 0.5
22 |  | -13.4 |  | -5.7 | CCN1CCN(C/C=C/c2ccc(N(C)C)cc2)CC1 [compound 5424907] | -6.5 | -2.9 | 0.00666
